Data set [1] concerns p27 and p21 protein expression. As to the kind of experiment: Immunoblotting of SCF substrates in prostate cancer cells. It is filed as cell-based. An excerpt:
Cells were lysed with RIPA buffer in the presence of protease inhibitor cocktail (Roche). The following antibodies were used for immunoblotting analysis: anti-Skp2 (Invitrogen), anti-Xpress (Invitrogen), anti-p27 (BD transduction laboratories), anti-p21 (Santa Cruz), anti-β-actin (Sigma), anti-α-tubulin (Sigma), anti-phospho-Akt (Thr308) (Cell Signaling), anti-phospho-Akt (Ser473) (Cell Signaling), and anti-HA (Convance). For immunohistochemistry, tissues were fixed in 10% formalin and embedded in paraffin in accordance with standard procedures. Sections were stained with anti-Skp2 (Invitrogen), anti-p27 (Epitomics), anti-phosphoAkt (SerS473) (Cell signaling), anti-Glut1 (Abcam), and anti-Ki67 (Abcam). TUNEL staining was performed by using in situ cell death detection kit-POD (Roche).

Another data set deals with H3255 (lung). As to the kind of experiment: Cell survival assay, H3255. The format is cell-based, human. The procedure: (§1) For Skp2 inhibitor administration, 5-10×10^3 of cells with were seeded in 12 wells in triplicate, 24 h later, treated with compound #25 (refreshed every two days). Four days later, cells were harvested, stained with trypan blue, and viable cells were counted directly under the microscope using hemocytometer. For doxorubicin treatment, 8×10^3 of PC3 cells with were seeded in 12 wells in triplicate, 24 h later, treated with various dose of compound #25 in the presence or absence of 10 nM doxorubicin or 25 ng/ml cyclophosphamide for four and three days, respectively (refreshed every two days). After treatment, cells were harvested, stained with trypan blue, and viable cells were counted directly under the microscope using hemocytometer. Cellular senescence was determined by assessing SA-b-gal activity using senescence detection kit according to manufacturers' standard procedures (Calbiochem).

A further data set relates to H3299 (lung). As to the kind of experiment: Cell survival assay, H3299. It is filed as cell-based, human. The procedure:
as §1

Data set [2] is described as follows: Pharmacokinetic analysis, plasma and tumor distribution. It is filed as in vivo, nude mice. The procedure:
FIGS. 14A-C. Skp2 inhibitor restricts cancer cell proliferation and triggers apoptosis in prostate tumor xenografts. The quantification results (FIG. 14A) and representative images (FIG. 14B) of histological analysis of Ki-67, TUNEL, Skp2 and HE staining in PC3-driven tumor xenografts. “Low” indicates tumor xenografts treated with 40 mg/kg, while “high” indicates the xenografts treated with 80 mg/kg of compound #25. Scale bar indicates 100 μm. (FIG. 14C) Pharmacokinetic analysis of compound #25. Plasma and tumor distribution following IP injection of compound #25 to nude mice bearing PC3-driven tumor xenograft are analyzed. Three mice were evaluated at each time point. Results are represented as mean values±S.D.

SMILES strings stand for the structures. Read-outs that look alike come from different tables or passages of the source.

In general, Cmax refers to the maximum level reached in the sampled fluid or tissue. As for `CCc1cc2c(=O)c(-c3nc4ccccc4s3)coc2c(CN2CCCCC2)c1O` [compound #25, 3-(1,3-benzothiazol-2-yl)-6-ethyl-7-hydroxy-8-(1-piperidinylmethyl)-4H-chromen-4-one], the “stabilization/induction of SCF substrates” value in data set [1] (Skp2, Fbw7 and β-TrCP substrates, FIGS. 3E and 11A) is recorded as “selectively stabilized Skp2 substrates”. For the same compound, in data set [1] (prostate cancer cells), the “endogenous p27 and p21 protein expression” value was “induced endogenous p27 and p21 protein expression”. Moreover, the cell viability entry with H3255 (lung) and in the data set on H3299 (lung) was “potent suppressive effect on viability” throughout. For the same compound, in data set [2] (IP administration), the “time of maximum levels in blood” value worked out at 1 h. In data set [2] (for 6 h), the “share of compound maintained in blood” value is recorded as “up to 70%”. The concentration at 24 h in data set [2] (nude, mouse, blood, intraperitoneal, 24 h after administration, read-out: terminal concentration in blood) is 126 ± 48 ng/mL; in data set [2] (nude, mouse, tumor, intraperitoneal, 24 h after initial administration, read-out: concentration remaining in tumor tissues), around 1160 ng/mL. Further, in data set [2] (nude, mouse, blood, IP administration), the Cmax was 1430 ± 1180 ng/mL. Besides, the concentration at 1 h in data set [2] (nude, mouse, tumor, intraperitoneal, within 1 h, read-out: concentration in tumors) worked out at 4790 ± 1970 ng/g.
